The values below come from patent publication US10576066B2, “Histone deacetylase as a modulator of PDLI expression and activity” (H. LEE MOFFITT CANCER CENTER AND RESEARCH INSTITUTE, INC., priority 2014, dated 2020).

For assay [1], the system named is B16 melanoma cells. Put plainly: In vivo growth of B16 melanoma in C57BL/6 mice treated with HDAC6 inhibitors. The settings on record: wild type B16 melanoma cells in C57BL/6 mice, treated daily with 20 mg/kg; FIG. 7B. An excerpt:
Pan-HDAC inhibitors (pan-HDACi) slows the proliferation and improves the immunogenicity of melanoma cells (Woods, D. M., et al. Melanoma Res (2013)). However, the non-selective nature of pan-HDACi makes the assumption of the specific participation of HDACs on these processes impossible. […] The next step was identifying if HDAC6KD would affect the growth of melanoma cells in vivo. […] A similar result was obtained in another experiment injecting wild type B16 melanoma cells into C57BL/6 mice treated daily with 20 mg/kg of the HDAC6inh Nexturastat A or Nexturastat B (FIG. 7B). The amount of PDL1 and activation of STAT3 was decreased in tumors isolated after the in vivo treatment with HDAC6inh (FIG. 7C).
These in vitro results were further supported by in vivo tumor growth studies. […] A similar outcome was identified after inoculation of HDAC6KD B16 melanoma cells in C57BL/6 mice (FIG. 14A). […] This delay in tumor growth could be a reflection of their diminished proliferation and an increase in their immunogenicity leading to improved immune recognition and clearance. These studies provide critical insights into the molecular pathways that are involved in the regulatory role of HDAC6 in cell proliferation, survival, and cytokine signaling of human melanoma cells.

For assay [2], the system named is PDL1. Put plainly: PDL1 expression by flow cytometry in melanoma cell lines treated with HDACi. Format: cell-based. The conditions noted are these: two murine and five human melanoma cell lines, up to 72 hours, relative to DMSO; FIG. 22. The procedure:
B16, WM983A, Sk-Mel21, WM1366, WM35, and WM793 melanoma cells lines were treated with DMSO (“D”), 10 nM LBH589 (“LB”), 500 nM MGCD0103 (“MG”), or 500 nM MS275 (“MS”) for 72 hours. PDL1 expression was assessed by flow cytometry. Histograms shown are for PDL1 expression or autofluorescence (solid grey) of 10,000 cells or more.
Melanoma cell lines were treated with DMSO, 10 nM LBH589 (squares), 1.5 μM ACY1215 (triangles), 500 nM MS275 (diamonds), 500 nM CLB66 (circles), or 500 nM MGCD0103 (X). PDL1 expression at indicated time points was assessed by flow cytometry. Voltages between time point measurements was standardized using rainbow beads with standard emissions. Mean fluorescence intensity minus autofluorescencee is graphed for each time point. DMSO treatment was plotted as zero hours.
In this Example, HDACi targeting class I HDACs, but not class II, is shown to augment expression of PDL1 in melanoma cells. Two murine and five human melanoma cell lines were treated for up to 72 hours with DMSO, LBH589 (pan-HDACi), MS275 (class I inhibitor), MGCD0103 (class I inhibitor), an HDAC6 specific inhibitor, or a class IIa inhibitor (FIG. 21). […] Increased expression was noted as early as 24 hours after treatment and peaked at 72 to 96 hours post-treatment (FIG. 23).

Assay [3] relates to PDL1. Put plainly: PDL1 expression in B16 tumors of LBH589-treated mice (flow cytometry). Format: in vivo, C57BL/6 mice. The settings on record: 15 mg/kg IP Mon, Wed, Fri, one week, FIG. 24. As to the method: C57BL/6 mice were injected subcutaneously with 100,000 B16 cells. When tumors became palpable, treatment with 15 mg/kg LBH589 via IP injection began on a Mon, Wed, Fri schedule. After one week of treatment, mice were sacrificed, tumors harvest and analyzed by flow cytometry for PDL1 expression.
(In general: In flow cytometry, cells or beads pass a laser one at a time.)

Assay [4] relates to HDAC6. Put plainly: Recruitment of HDAC6 to the IL-10 promoter. The conditions noted are these: cells treated with STAT3 inhibitor. Format: cell-based. An excerpt: HDAC6 is recruited to regulatory sequences in gene promoters such as MYC (Toropainen, S., et al. J Mol Biol. 400:284-294 (2010)), glucocorticoid receptor (Govindan, M. V. J Biol Chem. 285:4489-4510 (2010)) and estrogen receptor a-inducible genes (Palijan, A., et al. J Biol Chem. 284:30264-30274 (2009)). However, there is no evidence showing that HDAC6 is directly affecting the acetylation status of chromatin. […] Thus, the transcriptional regulatory effects observed for HDAC6 could be mediated by other regulatory factors recruited along with this deacetylase to specific DNA sequences. […] HDAC6 and STAT3 are recruited to the same region of the IL-10 promoter, and the recruitment of HDAC6 is impaired when cells are treated with the STAT3 inhibitor CPA-7.

In assay [5] the test system is B16 WT melanoma. Description: In vivo growth of B16 WT melanoma in SCID mice treated with HDAC6 inhibitor. The conditions noted are these: FIG. 14A. The procedure:
FIGS. 14A and 14B show differences in growth of melanoma cells after HDAC6 inhibition in altered immune systems. […] Mice were treated with antibodies to deplete CD4, CD8, and NK cells.

Assay [6] has as its system Multiple Myeloma. The settings on record: preliminary studies (Santo et al. 2012); cited from earlier work.

With `CCCCN(Cc1ccc(C(=O)NO)cc1)C(=O)Nc1ccccc1` [Nexturastat A], in assay [1], the tumor growth entry is given as “delayed tumor growth”. `Cc1[nH]c2ccccc2c1CCNCc1ccc(/C=C/C(=O)NO)cc1` [LBH589]: the PDL1 expression result in assay [2] is “dose dependent, increases”. The “PDL1 expression in vivo” value in assay [3] was “upregulates”. In the case of `Nc1ccccc1NC(=O)c1ccc(CNC(=O)OCc2cccnc2)cc1` [MS275], the PDL1 expression result in assay [2] is on record as “dose dependent, increases”.

Consider CPA-7, for which, in assay [4], the “recruitment of HDAC6 to the IL-10 promoter” value is given as “impaired”.

On to `Nc1ccccc1NC(=O)c1ccc(CNc2nccc(-c3cccnc3)n2)cc1` [MGCD0103], for which, in assay [2], the PDL1 expression result is “dose dependent, increases”. Consider `CCCCN(Cc1ccc(C(=O)NO)cc1)C(=O)Nc1ccc2cn[nH]c2c1` [Nexturastat B], for which the tumor growth result in assay [1] is given as “delayed tumor growth”. In addition, the “in vivo growth of B16 WT melanoma” value in assay [5] is “not significantly different”.

As to `O=C(CCCCCCNC(=O)c1cnc(N(c2ccccc2)c2ccccc2)nc1)NO` [ACY1215], the anti-tumor activity entry in assay [6] is reported as “important anti-tumor activity”.
